Structures can show the parent of a compound that is named as a salt. Values belong to the molecule of their own block, whether it stands above or below them.
Key:
[1] = Dissolution study of HCl salt and free base in formulation buffer; assay type: physicochemical; settings: for solubility (visual appearance): 10 mg/mL (1%) in pH 6, 10 mM citrate buffer, 1% PEG400, 1% Glycerin, 0.3% NaCl, 0.05% PS80
Procedure: A dissolution study was performed in which the HCl salt or the free base were added to the following formulation buffer at a concentration of 10 mg/mL (1%): • pH 6, 10 mM citrate buffer, 1% PEG400, 1% Glycerin, 0.3% NaCl, 0.05% PS80.
The pH was increased for soluble samples to better understand their properties. The appearance of the samples was visually observed for clarity or cloudiness. […] The free base was not soluble.

[2] = Free base solubilization with solubilizers; assay type: physicochemical; settings: aqueous solubilizer (excipient) mixture, aqueous with cosolvent or surfactant or cyclodextrin; combination of 3% Glycerin, 5% PEG 400, 5% PEG-35 castor oil, 15% polysorbate 60, 4% polysorbate 80, 2% PVP K29/32, 10% propylene glycol
Text: The free base was not soluble with various solubilizers.

[3] = tested on: Mice sensitized with short ragweed allergen; assay: Murine model of allergic conjunctivitis (conjunctival allergen challenge, short ragweed); assay type: in vivo, mouse
Procedure: Mice were sensitized with subcutaneously injected short ragweed allergen (day 1, day 11), and underwent conjunctival allergen challenge (CAC) on day 18 with short ragweed allergen. Following challenge, the mice were randomized into treatment groups (n=8) and given topical test compounds: vehicle, 0.1% Compound 1, 1% Compound 1, 1% prednisolone, or saline (BSS) twice a day for 2 days, and three times a day for an additional 4 days during allergen challenges. Challenges were conducted twice daily, on day 21 thru 24. Responses to allergen challenge were evaluated after challenges 1, 4, 6 and 8.

[4] = tested on: patients with acute or chronic allergic conjunctivitis; assay: Clinical conjunctival allergen challenge (CAC) study; assay type: in vivo, human
Text: In a study utilizing the clinical model of the conjunctival allergen challenge (CAC) qualifying patients with acute or chronic allergic conjunctivitis were randomized to receive one of the five interventions listed below, each was given six doses at 1 drop per dose. The CAC model is a standardized clinical methodology for evaluation of novel drugs for allergy and anti-inflammatory activity, accepted by the FDA for clinical development of novel therapeutics, and has been used for development of 19 drugs currently on the market. In the CAC model, doses of allergen are administered in a controlled fashion to patients eyes in the office setting to induce a controlled allergic reaction. Drug is administered at pre-specified timepoints and signs and symptoms are collected also at pre-specified timepoints to assess efficacy.
• Composition A: 0.5% w/w Compound 1 HCl salt, 1.5% w/w glycerin, 0.01% w/w BAC in 10 mM phosphate buffer, pH 6.0. • Composition B: 1.0% w/w Compound 1 HCl salt, 1.5% w/w glycerin, 0.01% w/w BAC in 10 mM phosphate buffer, pH 6.0. • Placebo: 0.01% w/w BAC, 1.5% w/w glycerol, pH 6.0. After receiving screening and baseline CACs, patients were assigned in a masked randomization fashion to receive a study treatment at 8 hour or 15 min pre-CAC at Visits 4b and 5, respectively. […]
• Ocular Itching [Time Frame: 5, 7, and 10 minutes post allergen administration (CAC)] Ocular Itching were assessed by the subjects using a 0-4 scale (0=none to 4=severe). Average of ocular itching score over both eyes were analyzed. • Conjunctival Redness [Time Frame: 7, 15, and 20 minutes post allergen administration CAC] • Conjunctival Redness were assessed by the investigator using a 0-4 scale (0=none to 4=severe). Average of conjunctival redness score over both eyes were analyzed. • Other variables assessed for efficacy include lid swelling, chemosis, tearing, nasal symptoms, and indication of biological activity via exploratory assessment of biomarkers, and exploratory imaging of inflammation with in vivo confocal microscopy. […]

- solubility (visual appearance) ([1]; listed as free base): not soluble
- solubility [2]: 1000 to 10000 µg/mL
SMILES: NC(=O)c1cnc(N[C@@H]2CCCC[C@@H]2N)nc1Nc1cccc(-c2ncccn2)c1 [Compound 1, 2-((1R,2S)-2-aminocyclohexylamino)-4-(3-(pyrimidin-2-yl)phenylamino)pyrimidine-5-carboxamide]
- test days with statistically significant reduction in overall mean hyperemia ([3]; 1% Compound 1): 3 of 4
- test days with significantly reduced mean change in hyperemia compared to saline ([3]; Compound 1 (0.1%), topical): 2 of 4
- test days with significantly reduced mean change in hyperemia (pre-versus post-CAC) compared to saline ([3]; Compound 1 (1%), topical): 4 of 4
- ocular discharge, lid swelling, or squinting ([3]; mouse, in vivo): No significant changes
- relief of allergic conjunctivitis ([3]; murine model): showed efficacy
- treatment emergent adverse events ([4]; Compound 1 groups): rated mild
- biological effect ([4]; both concentrations (0.5%, 1%)): clear and consistent biological effect
- reduction of redness, 8 hours versus 15 minutes following dosing ([4]; human, in vivo): reduced redness to a greater extent at 8 hours following dosing compared with 15 minutes

- solubility (visual appearance) [1]: soluble even at a pH of 6
- behaviour as pH was increased from 6 ([1]; same formulation buffer, pH increased): precipitates formed
SMILES: NC(=O)c1cnc(N[C@@H]2CCCC[C@@H]2N)nc1Nc1cccc(-c2ncccn2)c1 [HCl salt, 2-((1R,2S)-2-aminocyclohexylamino)-4-(3-(pyrimidin-2-yl)phenylamino)pyrimidine-5-carboxamide]

SMILES: C[C@]12C=CC(=O)C=C1CC[C@@H]1[C@@H]2[C@@H](O)C[C@@]2(C)[C@H]1CC[C@]2(O)C(=O)CO [prednisolone, reference compound]
- test days with significant decrease in the mean change in hyperemia ([3]; prednisolone (1.0%), topical, positive control): 2 of 4

— US20210052582A1, “METHODS OF USE AND PHARMACEUTICAL COMPOSITIONS OF A SELECTIVE SYK INHIBITOR” (Portola Pharmaceuticals, Inc., priority 2018, published 2021)
